{"source": "paper PMC7774954", "about": "“Interactomic affinity profiling by holdup assay: Acetylation and distal residues impact the PDZome-binding specificity of PTEN phosphatase” (PLoS ONE, 2020)", "system": "266 human PDZ domains (PDZome)", "experiment": "Holdup assay (chromatographic retention, PDZome-binding profile, BI)", "parameters": "key to maximal BI / Max BI / BI: binding intensity: 0.00 = no binding, 1.00 = maximal binding; Log(Kd): unit not given here", "how_it_was_run": "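Streptavidin resin was saturated with biotinylated 11-mer or 13-mer PTEN PBM peptides (42 μM loading solution), with biotin-only resin as the reference. Resins were incubated for 15 min with lysates containing MBP- or thioredoxin-tagged PDZ domains adjusted to 4 μM, in singlicate. Free PDZ in the filtrate was quantified by capillary electrophoresis, and depletion versus reference gave binding intensity (0–1).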", "key": {"[1]": {"conditions": "PDZ domain PARD3-1, first of two lines so named (r186)"}}}
{"smiles": "CC[C@H](C)[C@H](NC(=O)[C@H](CCC(N)=O)NC(=O)[C@@H](NC(=O)[C@H](Cc1c[nH]cn1)NC(=O)[C@H](CCC(N)=O)NC(=O)[C@H](CC(=O)O)NC(=O)[C@H](CCC(=O)O)NC(=O)[C@H](CC(=O)O)NC(=O)CCC(=O)NCCCOCCOCCOCCCNC(=O)CCCC[C@@H]1SC[C@@H]2NC(=O)N[C@@H]21)[C@@H](C)O)C(=O)N[C@H](C(=O)N[C@@H](CCCCN)C(=O)N[C@H](C(=O)O)C(C)C)[C@@H](C)O", "note": "[PTEN_11]", "values": [{"measurement": "BI", "setting": "PDZ domain MPDZ-2", "result": -0.043}, {"measurement": "BI", "setting": "PDZ domain MPDZ-3", "result": 0.079}, {"measurement": "BI", "setting": "PDZ domain MPDZ-4", "result": -0.037}, {"measurement": "BI", "setting": "PDZ domain MPDZ-5", "result": 0.085}, {"measurement": "BI", "setting": "PDZ domain MPDZ-6", "result": -0.029}, {"measurement": "BI", "setting": "PDZ domain MPDZ-7", "result": 0.154}, {"measurement": "BI", "setting": "PDZ domain MPDZ-8", "result": 0.119}, {"measurement": "BI", "setting": "PDZ domain MPDZ-9 (gene NHERF2, 2)", "result": -0.075}, {"measurement": "BI", "setting": "PDZ domain MPP1-1", "result": -0.033}, {"measurement": "BI", "setting": "PDZ domain MPP2-1", "result": -0.076}, {"measurement": "BI", "setting": "PDZ domain MPP3-1", "result": 0.035}, {"measurement": "BI", "setting": "PDZ domain MPP4-1", "result": 0.041}, {"measurement": "BI", "setting": "PDZ domain MPP5-1", "result": -0.091}, {"measurement": "BI", "setting": "PDZ domain MPP6-1", "result": -0.062}, {"measurement": "BI", "setting": "PDZ domain MPP7-1", "result": 0.034}, {"measurement": "BI", "setting": "PDZ domain NHERF1-2", "result": 0.094}, {"measurement": "BI", "setting": "PDZ domain NHERF3-1", "result": 0.153}, {"measurement": "BI", "setting": "PDZ domain NHERF3-2", "result": 0.063}, {"measurement": "BI", "setting": "PDZ domain NHERF3-3", "result": 0.131}, {"measurement": "BI", "setting": "PDZ domain NHERF3-4", "result": -0.013}, {"measurement": "BI", "setting": "PDZ domain NHERF4-1", "result": -0.04}, {"measurement": "BI", "setting": "PDZ domain NHERF4-2", "result": -0.071}, {"measurement": "BI", "setting": "PDZ domain NHERF4-3", "result": 0.06}, {"measurement": "BI", "setting": "PDZ domain NHERF4-4", "result": -0.01}, {"measurement": "BI", "setting": "PDZ domain NOS1-1", "result": 0.016}, {"measurement": "BI", "setting": "[1]", "result": 0.172}, {"measurement": "Log(Kd)", "setting": "[1]", "result": 3.7949}, {"measurement": "BI", "setting": "PDZ domain PARD3-1, second of two lines so named (r187)", "result": 0.048}, {"measurement": "BI", "setting": "PDZ domain PARD3B-1", "result": -0.032}, {"measurement": "BI", "setting": "PDZ domain PARD3B-2", "result": 0.045}, {"measurement": "BI", "setting": "PDZ domain PARD3B-3", "result": -0.026}, {"measurement": "BI", "setting": "PDZ domain PARD6G-1", "result": -0.088}, {"measurement": "BI", "setting": "PDZ domain PDLIM2-1", "result": -0.001}, {"measurement": "BI", "setting": "PDZ domain PDLIM3-1", "result": -0.059}, {"measurement": "BI", "setting": "PDZ domain PDLIM4-1", "result": -0.02}, {"measurement": "BI", "setting": "PDZ domain PDLIM5-1", "result": 0.07}, {"measurement": "BI", "setting": "PDZ domain PDLIM7-1", "result": 0.032}, {"measurement": "BI", "setting": "PDZ domain PDZD2-1", "result": -0.006}, {"measurement": "BI", "setting": "PDZ domain PDZD2-3", "result": -0.072}, {"measurement": "BI", "setting": "PDZ domain PDZD2-4", "result": -0.02}, {"measurement": "BI", "setting": "PDZ domain PDZD2-5", "result": 0.028}, {"measurement": "BI", "setting": "PDZ domain PDZD2-6", "result": 0.115}, {"measurement": "BI", "setting": "PDZ domain PDZD4-1", "result": 0.019}, {"measurement": "BI", "setting": "PDZ domain PDZD7-1", "result": -0.032}, {"measurement": "BI", "setting": "PDZ domain PDZD7-2", "result": 0.087}, {"measurement": "BI", "setting": "PDZ domain PDZD7-3", "result": 0.658}, {"measurement": "BI", "setting": "PDZ domain PDZD8-1", "result": -0.04}, {"measurement": "BI", "setting": "PDZ domain PDZD11-1", "result": -0.013}, {"measurement": "BI", "setting": "PDZ domain PDZRN4-1", "result": 0}, {"measurement": "BI", "setting": "PDZ domain PDZRN4-2", "result": 0.005}, {"measurement": "BI", "setting": "PDZ domain PREX1-1", "result": 0.099}, {"measurement": "BI", "setting": "PDZ domain PREX2-2", "result": -0.021}, {"measurement": "BI", "setting": "PDZ domain PRX-1", "result": -0.1}, {"measurement": "BI", "setting": "PDZ domain PSCDBP-1", "result": -0.154}, {"measurement": "BI", "setting": "PDZ domain PSMD9-1", "result": -0.01}, {"measurement": "BI", "setting": "PDZ domain PTPN3-1", "result": 0.075}, {"measurement": "BI", "setting": "PDZ domain PTPN4-1", "result": 0.017}, {"measurement": "BI", "setting": "PDZ domain PTPN13-1", "result": 0.143}, {"measurement": "BI", "setting": "PDZ domain PTPN13-5", "result": -0.041}, {"measurement": "BI", "setting": "PDZ domain RAPGEF2-1", "result": -0.045}, {"measurement": "BI", "setting": "PDZ domain RHPN2-1", "result": -0.079}, {"measurement": "BI", "setting": "PDZ domain SCRIB-1", "result": 0.062}, {"measurement": "BI", "setting": "PDZ domain SCRIB-2", "result": -0.183}, {"measurement": "BI", "setting": "PDZ domain SCRIB-4", "result": 0.061}, {"measurement": "BI", "setting": "PDZ domain SHANK1-1", "result": 0.251}, {"measurement": "BI", "setting": "PDZ domain SHANK2-1", "result": 0.071}, {"measurement": "BI", "setting": "PDZ domain SHANK3-1", "result": 0.106}, {"measurement": "BI", "setting": "PDZ domain SHROOM2-1", "result": 0.022}, {"measurement": "BI", "setting": "PDZ domain SHROOM4-1", "result": -0.001}, {"measurement": "BI", "setting": "PDZ domain SIPA1L2-1", "result": 0.019}, {"measurement": "BI", "setting": "PDZ domain SNTA1-1", "result": 0.18}, {"measurement": "BI", "setting": "PDZ domain SNTB1-1", "result": 0.156}, {"measurement": "BI", "setting": "PDZ domain SNTG1-1", "result": 0.078}, {"measurement": "BI", "setting": "PDZ domain SNTG2-1", "result": 0.056}, {"measurement": "BI", "setting": "PDZ domain STXB4-1", "result": -0.026}, {"measurement": "BI", "setting": "PDZ domain SYNJ2BP-1", "result": 0.089}, {"measurement": "BI", "setting": "PDZ domain SYNP2-1", "result": -0.045}, {"measurement": "BI", "setting": "PDZ domain SYNPO2L-1", "result": -0.053}, {"measurement": "BI", "setting": "PDZ domain TIAM1-1", "result": 0.032}, {"measurement": "BI", "setting": "PDZ domain TIAM2-1", "result": 0.033}, {"measurement": "BI", "setting": "PDZ domain TJP1-1", "result": 0.119}, {"measurement": "BI", "setting": "PDZ domain TJP1-2", "result": -0.039}, {"measurement": "BI", "setting": "PDZ domain TJP2-3", "result": 0.064}, {"measurement": "BI", "setting": "PDZ domain TJP3-1", "result": 0.015}, {"measurement": "BI", "setting": "PDZ domain TJP3-2", "result": 0.017}, {"measurement": "BI", "setting": "PDZ domain TX1B3-1", "result": -0.022}, {"measurement": "BI", "setting": "PDZ domain USH1C-1", "result": -0.104}, {"measurement": "number of PDZ domains identified as potential binders (BI>0.20)", "setting": "holdup, singlicate, threshold BI>0.20", "result": 19, "unit": "PDZ domains"}, {"measurement": "maximal BI", "setting": "holdup, singlicate, highest BI in the PDZome profile, BI standard error ~0.07", "result": 0.71}, {"measurement": "binding of several PDZ domains (in words)", "setting": "including several ones from MAGI and NHERF", "result": "detectably bound"}, {"measurement": "Max BI", "setting": "maximum over PDZome", "result": 0.71}]}
